Data: patent US4265884A, “Therapeutically active polypeptides or acid addition salts thereof and a process for producing such compounds” (Nordisk Insulinlaboratorium, priority 1978, dated 1981)
Where a SMILES comes first, the peptide text is derived from it.

Tests used:
Langerhans's islets = assay: In vitro glucose stimulated insulin secretion from isolated Langerhans's islets; assay type: cell-based; conditions: for glucose stimulated insulin secretion, percentage of the effect of 10 mmolar glucose alone: hydrochloride, with 10 mM glucose, isolated islets preincubated 24 hours at 37° C
Method: In vitro determination of the effect or the peptides on the glucose stimulated insulin secretion was carried out on Langerhans's islets isolated by collagenase technique and preincubated 24 hours at 37° C. Secretion tests were conducted with 10 mM of glucose and three peptide concentrations.
All peptides have been tested in the form of their hydrochlorides together with 10 mmolar glucose, and the value is calculated as a percentage of the effect of 10 mmolar glucose alone.

[1] = pharmacological dosages; cited from earlier work

COC(=O)[C@H](CC(C)C)NC(=O)[C@H](CCCNC(=N)N)NC(=O)[C@@H](N)CCC(N)=O [Peptide 1, glnargleuOMe, 2HCl] (H-Gln-Arg-Leu-OMe)
glucose stimulated insulin secretion, percentage of the effect of 10 mmolar glucose alone (Langerhans's islets; peptide 5mM): 151%
glucose stimulated insulin secretion, percentage of the effect of 10 mmolar glucose alone (Langerhans's islets; peptide 5 × 10^-1 mM): 113%
glucose stimulated insulin secretion, percentage of the effect of 10 mmolar glucose alone (Langerhans's islets; peptide 5 × 10^-2 mM): 144%

COC(=O)[C@H](CC(C)C)NC(=O)[C@H](CCCNC(=N)N)NC(=O)[C@H](CCC(N)=O)NC(=O)[C@@H](N)CC(C)C [Peptide 3, leuglnargleuOMe, 2HCl] (H-LQRL-OMe)
glucose stimulated insulin secretion, percentage of the effect of 10 mmolar glucose alone (Langerhans's islets; peptide 5mM): 240%
glucose stimulated insulin secretion, percentage of the effect of 10 mmolar glucose alone (Langerhans's islets; peptide 5 × 10^-1 mM): 127%
glucose stimulated insulin secretion, percentage of the effect of 10 mmolar glucose alone (Langerhans's islets; peptide 5 × 10^-2 mM): 124%

COC(=O)[C@H](CC(C)C)NC(=O)[C@H](CCCNC(=N)N)NC(=O)[C@H](CCC(N)=O)NC(=O)[C@H](CC(C)C)NC(=O)[C@@H](N)CCCNC(=N)N [Peptide 4, argleuglnargleuOMe, 3HCl] (H-RLQRL-OMe)
glucose stimulated insulin secretion, percentage of the effect of 10 mmolar glucose alone (Langerhans's islets; peptide 5mM): 153%
glucose stimulated insulin secretion, percentage of the effect of 10 mmolar glucose alone (Langerhans's islets; peptide 5 × 10^-1 mM): 120%
glucose stimulated insulin secretion, percentage of the effect of 10 mmolar glucose alone (Langerhans's islets; peptide 5 × 10^-2 mM): 135%

COC(=O)[C@H](CC(C)C)NC(=O)[C@H](CCCNC(=N)N)NC(=O)[C@H](CCC(N)=O)NC(=O)[C@H](CC(C)C)NC(=O)[C@H](CCCNC(=N)N)NC(=O)[C@H](C)NC(=O)[C@@H](N)CO [Peptide 5, seralaargleuglnargleuOMe, 3HCl] (H-SARLQRL-OMe)
glucose stimulated insulin secretion, percentage of the effect of 10 mmolar glucose alone (Langerhans's islets; peptide 5mM): 268%
glucose stimulated insulin secretion, percentage of the effect of 10 mmolar glucose alone (Langerhans's islets; peptide 5 × 10^-1 mM): 140%

COC(=O)[C@H](CC(C)C)NC(=O)[C@H](CCCNC(=N)N)NC(=O)[C@H](CCC(N)=O)NC(=O)[C@H](CC(C)C)NC(=O)[C@H](CCCNC(=N)N)NC(=O)[C@H](C)NC(=O)[C@H](CO)NC(=O)[C@@H](N)CC(=O)O [Peptide 6, aspseralaargleuglnargleuOMe, 3HCl] (H-DSARLQRL-OMe)
glucose stimulated insulin secretion, percentage of the effect of 10 mmolar glucose alone (Langerhans's islets; peptide 5mM): 142%
glucose stimulated insulin secretion, percentage of the effect of 10 mmolar glucose alone (Langerhans's islets; peptide 5 × 10^-1 mM): 110%

secretin
effect on insulin liberation from isolated Langerhans's islets (in words) (Langerhans's islets; same in vitro conditions as for the present peptides): not been possible to make secretin affect the insulin liberation
blood sugar level [1]: without affecting the blood sugar level
secretion of insulin [1]: potentiate the secretion of insulin
